# From patent US8802597B2, “Herbicidal pyrimidines” (E I du Pont de Nemours and Company, priority 2003, dated 2014)
# Experiments:
# Type in all cases: in vivo
# wild oat (Avena fatua) = assay: Test B postemergence; details: for Oat, Wild plant response rating: 125 g ai/ha, scale 0 to 100 (0 no effect, 100 complete control); for Plant response rating, Oat, Wild: 500 g ai/ha, scale 0 to 100
# Method in brief: (§1)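 Compounds in non-phytotoxic solvent with surfactant applied preemergence to planted seeds or postemergence to plants 2 to 18 cm tall (1- to 4-leaf stage). Greenhouse 13 to 15 days, then visual rating against controls on a 0 to 100 scale (100 = complete control).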
# [1] = tested on: blackgrass (Alopecurus myosuroides); assay: Test B postemergence; details: for Blackgrass plant response rating: 125 g ai/ha, scale 0 to 100 (0 no effect, 100 complete control); for Plant response rating, Blackgrass: 500 g ai/ha, scale 0 to 100
# Method in brief: as §1
# rice (Oryza sativa) = assay: Test B flooded paddy test; details: Flood, 1000 g ai/ha; scale 0 to 100
# Method in brief: (§2)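 Visual injury scoring (0 = no effect, 100 = complete control) versus controls made 13 to 15 days after treatment in the greenhouse. Test species were grown in flooded paddy to the 2-leaf stage: rice, barnyardgrass, umbrella sedge, duck salad.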
# [2] = tested on: barnyardgrass (Echinochloa crus-galli); assay: Test B flooded paddy test; details: Flood, 1000 g ai/ha; scale 0 (no effect) to 100 (complete control)
# Method in brief: as §2
# [3] = tested on: umbrella sedge (Cyperus difformis); assay: Test B flooded paddy test; details: Flood, 1000 g ai/ha; scale 0 to 100
# Method in brief: as §2
# [4] = tested on: duck salad (Heteranthera limosa); assay: Test B flooded paddy test; details: Flood, 1000 g ai/ha; scale 0 to 100
# Method in brief: as §2
# [5] = tested on: velvetleaf (Abutilon theophrasti); assay: Test B pre/postemergence
# Method in brief: as §1
# [6] = tested on: barnyardgrass (Echinochloa crus-galli); assay: Test B pre/postemergence
# Method in brief: as §1
# [7] = tested on: crabgrass (Digitaria sanguinalis); assay: Test B pre/postemergence
# Method in brief: as §1
# [8] = tested on: pigweed (Amaranthus retroflexus); assay: Test B pre/postemergence
# Method in brief: as §1
# [9] = tested on: lambsquarters (Chenopodium album); assay: Test B pre/postemergence
# Method in brief: as §1
# [10] = tested on: cocklebur (Xanthium strumarium); assay: Test B pre/postemergence
# Method in brief: as §1
# [11] = tested on: Surinam grass (Brachiaria decumbens); assay: Test B pre/postemergence
# Method in brief: as §1
# [12] = tested on: morningglory (Ipomoea coccinea); assay: Test B pre/postemergence
# Method in brief: as §1
# corn (Zea mays) = assay: Test B pre/postemergence
# Method in brief: as §1
# [13] = tested on: giant foxtail (Setaria faberii); assay: Test B pre/postemergence
# Method in brief: as §1
# [14] = tested on: wheat (Triticum aestivum); assay: Test B pre/postemergence
# Method in brief: as §1
# [15] = Postemergence, 125 g ai/ha, scale 0 to 100 (0 no effect, 100 complete control)
# [16] = Postemergence, 500 g ai/ha, scale 0 to 100
# [17] = Preemergence, 125 g ai/ha, scale 0 to 100 (0 no effect, 100 complete control)
# [18] = Preemergence, 500 g ai/ha, scale 0 to 100 (0 no effect, 100 complete control)
smiles,measurement,setting,value
CCOC(=O)Cc1nc(-c2ccc(Cl)cc2)nc(N)c1Br [Compound 41],"Oat, Wild plant response rating",wild oat (Avena fatua),0
same,"Plant response rating, Oat, Wild",wild oat (Avena fatua),0
same,Blackgrass plant response rating,[1],20
same,"Plant response rating, Blackgrass",[1],60
same,"Plant response rating, Rice",rice (Oryza sativa),0
same,"Plant response rating, Barnyardgrass",[2],0
same,"Plant response rating, Sedge, Umbrella",[3],80
same,"Plant response rating, Ducksalad",[4],90
same,Velvetleaf plant response rating,[5]; [15],50
same,"Plant response rating, Velvetleaf",[5]; [16],70
same,"Plant response rating, Velvetleaf",[5]; [17],10
same,Velvetleaf plant response rating,[5]; [18],30
same,Barnyardgrass plant response rating,[6]; [15],20
same,"Plant response rating, Barnyardgrass",[6]; [16],70
same,"Plant response rating, Barnyardgrass",[6]; [17],0
same,Barnyardgrass plant response rating,[6]; [18],10
same,Crabgrass plant response rating,[7]; [15],10
same,"Plant response rating, Crabgrass",[7]; [16],20
same,"Plant response rating, Crabgrass",[7]; [17],0
same,Crabgrass plant response rating,[7]; [18],20
same,Pigweed plant response rating,[8]; [15],70
same,"Plant response rating, Pigweed",[8]; [16],90
same,"Plant response rating, Pigweed",[8]; [17],0
same,Pigweed plant response rating,[8]; [18],60
same,Lambsquarters plant response rating,[9]; [15],80
same,"Plant response rating, Lambsquarters",[9]; [16],90
same,"Plant response rating, Lambsquarters",[9]; [17],30
same,Lambsquarters plant response rating,[9]; [18],60
same,Cocklebur plant response rating,[10]; [15],70
same,"Plant response rating, Cocklebur",[10]; [17],0
same,Cocklebur plant response rating,[10]; [18],10
same,Surinam Grass plant response rating,[11]; [15],0
same,"Plant response rating, Surinam Grass",[11]; [16],10
same,Surinam Grass plant response rating,[11]; [18],0
same,Morningglory plant response rating,[12]; [15],70
same,"Plant response rating, Morningglory",[12]; [16],90
same,"Plant response rating, Morningglory",[12]; [17],0
same,Morningglory plant response rating,[12]; [18],20
same,Corn plant response rating,corn (Zea mays); [15],20
same,"Plant response rating, Corn",corn (Zea mays); [16],80
same,"Plant response rating, Corn",corn (Zea mays); [17],0
same,Corn plant response rating,corn (Zea mays); [18],0
same,"Foxtail, Giant plant response rating",[13]; [15],20
same,"Plant response rating, Foxtail, Giant",[13]; [16],30
same,"Plant response rating, Foxtail, Giant",[13]; [17],0
same,"Foxtail, Giant plant response rating",[13]; [18],0
same,Wheat plant response rating,[14]; [15],30
same,"Plant response rating, Wheat",[14]; [16],40
same,"Plant response rating, Wheat",[14]; [17],0
same,"Plant response rating, Wheat",[14]; [18],20
CCOC(=O)c1nc(C2CC2)nc(NCCN(C)C)c1Br [Compound 38],"Oat, Wild plant response rating",wild oat (Avena fatua),0
same,"Plant response rating, Oat, Wild",wild oat (Avena fatua),0
same,Blackgrass plant response rating,[1],0
same,"Plant response rating, Blackgrass",[1],0
same,"Plant response rating, Rice",rice (Oryza sativa),0
same,"Plant response rating, Barnyardgrass",[2],0
same,"Plant response rating, Sedge, Umbrella",[3],0
same,"Plant response rating, Ducksalad",[4],0
same,Velvetleaf plant response rating,[5]; [15],0
same,"Plant response rating, Velvetleaf",[5]; [16],50
same,"Plant response rating, Velvetleaf",[5]; [17],0
same,Velvetleaf plant response rating,[5]; [18],0
same,Barnyardgrass plant response rating,[6]; [15],0
same,"Plant response rating, Barnyardgrass",[6]; [16],0
same,"Plant response rating, Barnyardgrass",[6]; [17],0
same,Barnyardgrass plant response rating,[6]; [18],0
same,Crabgrass plant response rating,[7]; [15],0
same,"Plant response rating, Crabgrass",[7]; [16],20
same,"Plant response rating, Crabgrass",[7]; [17],0
same,Crabgrass plant response rating,[7]; [18],0
same,Pigweed plant response rating,[8]; [15],30
same,"Plant response rating, Pigweed",[8]; [16],30
same,"Plant response rating, Pigweed",[8]; [17],10
same,Pigweed plant response rating,[8]; [18],70
same,Lambsquarters plant response rating,[9]; [15],20
same,"Plant response rating, Lambsquarters",[9]; [16],60
same,"Plant response rating, Lambsquarters",[9]; [17],20
same,Lambsquarters plant response rating,[9]; [18],90
same,Cocklebur plant response rating,[10]; [15],0
same,"Plant response rating, Cocklebur",[10]; [16],0
same,"Plant response rating, Cocklebur",[10]; [17],0
same,Cocklebur plant response rating,[10]; [18],0
same,Surinam Grass plant response rating,[11]; [15],0
same,"Plant response rating, Surinam Grass",[11]; [16],20
same,"Plant response rating, Surinam Grass",[11]; [17],0
same,Surinam Grass plant response rating,[11]; [18],0
same,Morningglory plant response rating,[12]; [15],10
same,"Plant response rating, Morningglory",[12]; [16],40
same,"Plant response rating, Morningglory",[12]; [17],0
same,Morningglory plant response rating,[12]; [18],50
same,Corn plant response rating,corn (Zea mays); [15],0
same,"Plant response rating, Corn",corn (Zea mays); [16],0
same,"Plant response rating, Corn",corn (Zea mays); [17],0
same,Corn plant response rating,corn (Zea mays); [18],10
same,"Foxtail, Giant plant response rating",[13]; [15],0
same,"Plant response rating, Foxtail, Giant",[13]; [16],0
same,"Plant response rating, Foxtail, Giant",[13]; [17],0
same,"Foxtail, Giant plant response rating",[13]; [18],0
same,Wheat plant response rating,[14]; [15],0
same,"Plant response rating, Wheat",[14]; [16],0
same,"Plant response rating, Wheat",[14]; [17],0
same,"Plant response rating, Wheat",[14]; [18],0
CCOC(=O)C(C)c1nc(C2CC2)nc(N)c1Br (stereo not shown) [Compound 32],"Oat, Wild plant response rating",wild oat (Avena fatua),20
same,"Plant response rating, Oat, Wild",wild oat (Avena fatua),30
same,Blackgrass plant response rating,[1],30
same,"Plant response rating, Blackgrass",[1],40
same,"Plant response rating, Rice",rice (Oryza sativa),0
same,"Plant response rating, Barnyardgrass",[2],0
same,"Plant response rating, Sedge, Umbrella",[3],0
same,"Plant response rating, Ducksalad",[4],0
same,Velvetleaf plant response rating,[5]; [15],10
same,"Plant response rating, Velvetleaf",[5]; [16],50
same,"Plant response rating, Velvetleaf",[5]; [17],50
same,Velvetleaf plant response rating,[5]; [18],80
same,Barnyardgrass plant response rating,[6]; [15],20
same,"Plant response rating, Barnyardgrass",[6]; [16],70
same,"Plant response rating, Barnyardgrass",[6]; [17],0
same,Barnyardgrass plant response rating,[6]; [18],10
same,Crabgrass plant response rating,[7]; [15],10
same,"Plant response rating, Crabgrass",[7]; [16],20
same,"Plant response rating, Crabgrass",[7]; [17],0
same,Crabgrass plant response rating,[7]; [18],40
same,Pigweed plant response rating,[8]; [15],80
same,"Plant response rating, Pigweed",[8]; [16],80
same,"Plant response rating, Pigweed",[8]; [17],40
same,Pigweed plant response rating,[8]; [18],90
same,Lambsquarters plant response rating,[9]; [15],70
same,"Plant response rating, Lambsquarters",[9]; [16],80
same,"Plant response rating, Lambsquarters",[9]; [17],40
same,Lambsquarters plant response rating,[9]; [18],90
same,Cocklebur plant response rating,[10]; [15],40
same,"Plant response rating, Cocklebur",[10]; [16],90
same,"Plant response rating, Cocklebur",[10]; [17],80
same,Cocklebur plant response rating,[10]; [18],90
same,Surinam Grass plant response rating,[11]; [15],0
same,"Plant response rating, Surinam Grass",[11]; [16],10
same,"Plant response rating, Surinam Grass",[11]; [17],0
same,Surinam Grass plant response rating,[11]; [18],0
same,Morningglory plant response rating,[12]; [15],40
same,"Plant response rating, Morningglory",[12]; [16],90
same,"Plant response rating, Morningglory",[12]; [17],40
same,Morningglory plant response rating,[12]; [18],80
same,Corn plant response rating,corn (Zea mays); [15],0
same,"Plant response rating, Corn",corn (Zea mays); [16],10
same,"Plant response rating, Corn",corn (Zea mays); [17],0
same,Corn plant response rating,corn (Zea mays); [18],0
same,"Foxtail, Giant plant response rating",[13]; [15],10
same,"Plant response rating, Foxtail, Giant",[13]; [16],20
same,"Plant response rating, Foxtail, Giant",[13]; [17],0
same,"Foxtail, Giant plant response rating",[13]; [18],0
same,Wheat plant response rating,[14]; [15],20
same,"Plant response rating, Wheat",[14]; [16],30
same,"Plant response rating, Wheat",[14]; [17],0
same,Wheat plant response rating,[14]; [18],10
